Results published in patent publication US11266643B2, “Triaryl compounds for treatment of PD-L1 diseases” (CHEMOCENTRYX, INC., priority 2019, dated 2022).

Biological target: human PD-L1 (Homo sapiens (Human), UniProt Q9NZQ7)
Experiment: Enzyme-Linked Immunosorbent Assay (ELISA), PD-1/PD-L1 binding
Conditions: PD-1/PD-L1 ELISA, human PD-L1 coated plates, Table 1
In short: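 Plates coated with […] human PD-L1 overnight at 4° C, blocked, then 1:5 serial compound dilutions added with human PD-1 […] 0.31 μg/mL for 1 h at 37° C. Bound PD-1 detected with streptavidin-HRP and TMB (20 min, 37° C); absorbance read at 450 nm after H2SO4 stop.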

Chain of human PD-L1 (Q9NZQ7 19-239): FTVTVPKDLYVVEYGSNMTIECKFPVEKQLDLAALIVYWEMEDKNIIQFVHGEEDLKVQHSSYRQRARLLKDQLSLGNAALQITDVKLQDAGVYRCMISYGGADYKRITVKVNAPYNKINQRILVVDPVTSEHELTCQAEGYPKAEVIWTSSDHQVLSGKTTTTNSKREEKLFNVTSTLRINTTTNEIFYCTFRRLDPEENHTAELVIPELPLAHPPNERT

Compound	IC50
COc1cc(-c2cccc(-c3cccc(NC(=O)c4ccc(C)cn4)c3C)c2C)cc(F)c1CN1CC(C(=O)O)C1 [Example 1.371]	< 10 nM
COc1cc(-c2cccc(-c3cccc(NC(=O)c4c[nH]c(=O)n(C)c4=O)c3C)c2C)cc(F)c1CNC[C@H](C)O [Example 1.223]	< 10 nM
COc1cc(-c2cccc(-c3cccc(NC(=O)c4c[nH]c(=O)n(C)c4=O)c3C)c2C)cc(F)c1CN1CC(O)C1 [Example 1.271]	< 10 nM
COc1cc(-c2cccc(-c3cccc(Nc4nccc5c4OCCN5)c3C)c2C)cc(F)c1CN1CC(C(=O)O)C1 [Example 1.244]	10 to 1000 nM
COc1cc(-c2cccc(-c3cccc(NC(=O)c4ncc(C(N)=O)cn4)c3C)c2C)cc(F)c1CN [Example 1.299]	< 10 nM
COc1cc(-c2cccc(-c3cccc(NC(=O)c4ccccn4)c3C)c2C)cc(F)c1CN1CCOC[C@H]1CO [Example 1.373]	10 to 1000 nM

Further lines, results first:

IC50	Compound
< 10 nM	COc1cc(-c2cccc(-c3cccc(NC(=O)C4=CNCN(C)C4=O)c3C)c2C)cc(F)c1CNCCO [Example 1.210]
< 10 nM	COc1cc(-c2cccc(-c3cccc(NC(=O)c4cccn(C)c4=O)c3C)c2C)cc(F)c1CNCCO [Example 1.300]
< 10 nM	COc1cc(-c2cccc(-c3cccc(NC(=O)c4cncn(C)c4=O)c3C)c2C)cc(F)c1CNC[C@@H](C)O [Example 1.203]
10 to 1000 nM	COc1cc(-c2cccc(-c3cccc(Nc4nccn5ccnc45)c3C)c2C)cc(F)c1CN1CC(C(=O)O)C1 [Example 1.249]
1000 to 10000 nM	COc1cc(-c2cccc(-c3cccc(NC(=O)c4ccnc(N)c4)c3C)c2C)cc(F)c1CNCCO [Example 1.389]
< 10 nM	COc1cc(-c2cccc(-c3cccc(NC(=O)c4c[nH]c(=O)n(C)c4=O)c3C)c2C)cc(F)c1CNC[C@@H]1CCC(=O)N1 [Example 1.201]
< 10 nM	COc1cc(-c2cccc(-c3cccc(NC(=O)c4ccncn4)c3C)c2C)cc(F)c1CN1CC(C(=O)O)C1 [Example 1.367]
< 10 nM	COC(=O)Cc1ccc(C(=O)Nc2cccc(-c3cccc(-c4cc(F)c(CN)c(OC)c4)c3C)c2C)nc1 [Example 1.331]
10 to 1000 nM	COc1cc(-c2cccc(-c3cccc(NC(=O)c4ccccn4)c3F)c2C)cc(F)c1CN1CC(C(=O)O)C1 [Example 1.370]
10 to 1000 nM	COc1cc(-c2cccc(-c3cccc(NC(=O)[C@H]4COCCN4)c3C)c2C)cc(F)c1CN [Example 1.319]
< 10 nM	COc1cc(-c2cccc(-c3cccc(NC(=O)c4cncn(C)c4=O)c3C)c2C)cc(F)c1CN[C@H](C)CO [Example 1.204]

Same assay, conditions: human PD-1/PD-L1 ELISA, plates coated with human PD-L1

Compound	IC50
COc1cc(-c2cccc(-c3cccc(NC(=O)c4cncn(C)c4=O)c3C)c2C)cc(F)c1CNCC1CCCNC1=O (stereo not shown) [Example 1.098]	< 10 nM
COc1cc(-c2cccc(-c3cccc(NC(=O)c4cn(C)c(=O)n(C)c4=O)c3C)c2C)cc(F)c1CN[C@H]1COCC[C@@H]1O [Example 1.001]	< 10 nM
COc1cc(-c2cccc(-c3cccc(NC(=O)c4c[nH]c(=O)n(C)c4=O)c3C)c2C)cc(F)c1CNCC1CCNC(=O)C1 (stereo not shown) [Example 1.071]	< 10 nM
COc1cc(-c2cccc(-c3cccc(NC(=O)c4cncn(C)c4=O)c3C)c2C)cc(F)c1CNC[C@H]1CCC(=O)N1 [Example 1.186]	< 10 nM
COc1cc(-c2cccc(-c3cccc(NC(=O)c4c[nH]c(=O)n(C)c4=O)c3C)c2C)cc(F)c1CNCCCC(N)=O [Example 1.083]	< 10 nM
COc1cc(-c2cccc(-c3cccc(NC(=O)c4nn(C)c(=O)n(C)c4=O)c3C)c2C)cc(F)c1CN[C@H]1CCC(=O)NC1 [Example 1.089]	< 10 nM
COc1cc(-c2cccc(-c3cccc(NC(=O)c4nn(C)c(=O)n(C)c4=O)c3C)c2C)cc(F)c1CN[C@@H]1CCOC[C@@H]1O [Example 1.076]	< 10 nM
COc1cc(-c2cccc(-c3cccc(NC(=O)C4=CNCN(C)C4=O)c3C)c2C)cc(F)c1CNC[C@@H]1CCC(=O)N1C [Example 1.194]	10 to 1000 nM
COc1cc(-c2cccc(-c3cccc(NC(=O)c4cn(C)c(=O)n(C)c4=O)c3Cl)c2C)cc(F)c1CN[C@H]1CCC(=O)NC1 [Example 1.026]	< 10 nM
COc1cc(-c2cccc(-c3cccc(Nc4nccc5nccnc45)c3Cl)c2C)cc(F)c1CNC[C@@H]1CCC(=O)N1 [Example 1.019]	< 10 nM
COc1cc(-c2cccc(-c3cccc(NC(=O)c4ccc(CNCCO)cn4)c3C)c2C)cc(F)c1CNCCO [Example 1.404]	< 10 nM

Further lines, results first:

IC50	Compound
< 10 nM	COc1cc(-c2cccc(-c3cccc(Nc4nccc5c4C(=O)N(C)CC5)c3C)c2C)cc(F)c1CN[C@@H]1CCC[C@@H]1O [Example 1.191]
< 10 nM	COc1cc(-c2cccc(-c3cccc(NC(=O)c4c[nH]c(=O)n(C)c4=O)c3C)c2C)cc(F)c1CNCC(C)(C)C(N)=O [Example 1.085]
10 to 1000 nM	COc1cc(-c2cccc(-c3cccc(NC(=O)c4cn(C)c(=O)n(C)c4=O)c3C)c2C)cc(F)c1CNCc1ccnn1C [Example 1.112]
< 10 nM	COc1cc(-c2cccc(-c3cccc(NC(=O)c4nn(C)c(=O)n(C)c4=O)c3C)c2C)cc(F)c1CNCC(C)(C)C(N)=O [Example 1.063]
< 10 nM	COc1cc(-c2cccc(-c3cccc(NC(=O)c4ccc(CN[C@@](C)(CO)C(=O)O)cn4)c3C)c2C)cc(F)c1CN[C@@](C)(CO)C(=O)O [Example 1.402]
10 to 1000 nM	COc1cc(-c2cccc(-c3cccc(Nc4nccc5nccnc45)c3C)c2F)cc(F)c1CNC[C@@H]1CCC(=O)N1 [Example 1.028]
< 10 nM	COc1cc(-c2cccc(-c3cccc(Nc4nccc5nccnc45)c3C)c2C)cc(F)c1CN[C@@H]1CCC[C@@H]1O [Example 1.180]
< 10 nM	COc1cc(-c2cccc(-c3cccc(NC(=O)c4cn(C)c(=O)n(C)c4=O)c3C)c2Cl)cc(F)c1CNCC(C)(C)C(N)=O [Example 1.034]
10 to 1000 nM	COc1cc(-c2cccc(-c3cccc(NC(=O)c4cccn(C)c4=O)c3C)c2C)cc(F)c1CNC1COC1 [Example 1.169]
< 10 nM	CNCc1c(F)cc(-c2cccc(-c3cccc(NC(=O)c4nc5c(s4)CN(CCO)CC5)c3F)c2C)cc1OC [Example 1.398]
< 10 nM	COc1cc(-c2cccc(-c3cccc(NC(=O)c4cn(C)c(=O)n(C)c4=O)c3C)c2C)cc(F)c1CN[C@@H]1CCOC[C@H]1O [Example 1.012]
< 10 nM	COc1cc(-c2cccc(-c3cccc(NC(=O)c4cn(C)c(=O)n(C)c4=O)c3C)c2C)cc(F)c1CN[C@@H]1CCOC1 [Example 1.038]

Same assay, conditions: plate-coated human PD-L1, biotinylated Human PD-1, absorbance at 450 nm

Compound	IC50
CCOc1cc(-c2cccc(-c3cccc(NC(=O)c4cn(C)c(=O)n(C)c4=O)c3C)c2Cl)cc(F)c1CN[C@@H]1CCOC[C@@H]1O [Example 2.039]	< 10 nM
COc1cc(-c2cccc(-c3cccc(NC(=O)c4cn(C)c(=O)n(C)c4=O)c3C)c2Cl)cc(F)c1CNC(C)C [Example 2.064]	< 10 nM
COc1cc(-c2cccc(-c3cccc(NC(=O)c4cn(C)c(=O)n(C)c4=O)c3Cl)c2C)cc(F)c1CN(C)C[C@@H]1CCC(=O)N1 [Example 2.100]	< 10 nM

Further lines, results first:

IC50	Compound
< 10 nM	COc1cc(-c2cccc(-c3cccc(NC(=O)c4cn(C)c(=O)n(C)c4=O)c3C)c2C)cc(F)c1CN1CC2(CCNC2=O)C1 [Example 2.011]
< 10 nM	COc1cc(-c2cccc(-c3cccc(NC(=O)c4cn(C)c(=O)n(C)c4=O)c3C)c2Cl)cc(F)c1CNCC(C)(C)O [Example 2.045]
10 to 1000 nM	COc1cc(-c2cccc(-c3cccc(NC(=O)c4cn(C)c(=O)n(C)c4=O)c3C)c2Cl)cc(F)c1CNC(C)(C)C(N)=O [Example 2.085]
